{"source": "ChEMBL document CHEMBL1150941", "about": "“The characterization and structure-activity evaluation of toxic norditerpenoid alkaloids from two Delphinium species” (J Nat Prod, 1998)", "assay": "Toxicity in iv dosed white Swiss-Webster mouse", "assay_type": "organism-based", "conditions": "in vivo", "data": [{"compound": "CCN1C[C@]2(COC(=O)c3ccccc3N3C(=O)C[C@H](C)C3=O)CC[C@H](O)[C@@]34[C@@H]5C[C@H]6[C@H](OC)[C@@H]5[C@](O)(C[C@@H]6OC)[C@](O)([C@@H](OC)[C@H]23)[C@@H]14", "note": "[GRANDIFLORINE]", "values": [{"measurement": "LD50", "value": 8.3, "unit": "mg/kg"}]}]}
